Experimental data from US20240043880A1, “IMPROVED METHODS FOR PRODUCTION, RECOVERY AND SECRETION OF HYDROPHOBIC COMPOUNDS IN A FERMENTATION” (BioPhero ApS, priority 2019, published 2024).

Assays:
Chilo suppressalis = conditions: C. suppressalis, cited from earlier work
Helicoverpa armigera = conditions: H. armigera, cited from earlier work
[1] = test system: Y. lipolytica strain ST8881; type: cell-based, Yarrowia lipolytica; conditions: antifoaming agent 3 v/v %
Description: Strain ST8327 has been engineered to produce (Z)11-hexadecen-1-ol. […] The strain expresses the Δ11 desaturase from Amyelois transitella (SEQ ID NO: 1) and fatty acyl-CoA reductase from Helicoverpa armigera (SEQ ID NO: 5). Strain ST8762 has been engineered to produce (Z)9-tetradecen-1-ol. The strain expresses the Δ9 desaturase from Drosophila melanogaster (SEQ ID NO: 16) and fatty acyl-CoA reductase from Helicoverpa armigera (SEQ ID NO: 5). […] A strain was inoculated from a YPD agar plate (10 g/L yeast extract, 10 g/L peptone, 20 g/L glucose, 15 g/L agar agar) to an initial OD600 of 0.1-0.2 into 2.5 mL YPG medium (10 g/L yeast extract, 10 g/L peptone, 40 g/L glycerol) in 24 well-plate (EnzyScreen). The plate was incubated at 28° C. and 300 rpm for 22 hours. […] At the same time, 95 μL of Antifoam A (ethoxylated and propoxylated C16-18 alcohols, CAS No. 68002-96-0), corresponding to […] (i.e. above the recommended dose of 0.1 v/v % for foam management and above the cloud concentration), was added. The plate was incubated at 28° C. and 300 rpm for 28 hours. Each experiment was performed in biological triplicates.
The intracellular and extracellular concentrations of fatty alcohols were assessed as follows. 1000 μL of culture broth was transferred to a 4 mL gas-tight glass extraction vial. The sample was centrifuged at 3,500 g for 5 min at room temperature. The supernatant was transferred into a new glass vial with 990 μL of hexane and 10 μL of internal standard (IS) solution (20 mg/L of methyl Z10-heptadecanoate in ethyl acetate). The vial was vortexed for 10 s and centrifuged as before. 250 μL of the upper hexane phase was transferred to a GC vial for GC-MS analysis of the extracellular fatty alcohol concentration. The pellet remaining after the removal of the supernatant from the centrifuged culture broth was resuspended in 990 μL of solvent mixture (EtOAc and EtOH) and 10 μL of IS solution as above. The sample was incubated for 1 h with periodic mixing. 300 μL water was added and the vials were centrifuged at 3,500 g for 5 min at room temperature. 250 μL of the upper organic phase was transferred to a GC vial for GC-MS analysis of the intracellular fatty alcohols. GC-MS analyses were performed on an Agilent 7820A GC coupled to a mass selective detector Agilent 5977B. The GC was equipped with an DB Fatwax column (30 m×0.25 mm×0.25 μm), and helium was used as carrier gas. The MS was operated in electron impact mode (70 eV), scanning between m/z 30 and 400, and the injector was configured in split mode 20:1 at 220° C. Oven temperature was set to 80° C. for 1 min, then increased at a rate of 20° C./min to 210° C., followed by a hold at 210° C. for 7 min, and then increased at a rate of 20° C./min to 230° C. Compounds were identified by comparison of retention times and mass spectra of the reference compounds. Compounds were quantified by the ion 55.1 m/z. Data were analysed by the Agilent Masshunter software. The concentrations of fatty alcohols were calculated based on standard calibration curves prepared with reference standards.
Here we investigated the effect of different antifoaming oils and agents on the recovery of fatty alcohols in a separate phase. The experiments were performed with engineered Y. lipolytica strain ST8881 following the procedures as in Example 1.
The control experiment was performed without addition of any antifoaming oil or agent.

Row | Compound | Behavioral response (Chilo suppressalis) | Behavioral response (Helicoverpa armigera) | % secretion of Z11.hexadecen-1-ol [1] | Extracellular concentration of Z11.hexadecen-1-ol [1] | Total concentration of Z11-hexadecen-1-ol [1] [mg/L] | Interaction with the two primary pheromone components Z11-16:Ald and Z13-18:Ald (Chilo suppressalis; Tatsuki et al.) | Effect on the activity of an artificial pheromone formulation when added to Z11-16:Ald (Helicoverpa armigera; Kehat et al., 1990)
1 | CCCCCCCCCCCCCCCC=O [16:Ald, n-Hexadecanal] | does not elicit a behavioral response | neutral |  |  |  |  | 
2 | CCCCCCCCCCCC [Dodecane] |  |  | 0 (0%) | 0 (0%) | 720.0 ± 95.6 |  | 
3 | CCCCCCCC/C=C\CCCCCCCC(=O)O [Oleic acid] |  |  | 0 (0%) | 0 (0%) | 1008.4 ± 648.6 |  | 
4 | CCCCCC/C=C\CCCCCCCC=O [Z9-16:Ald] |  |  |  |  |  | synergistic | enhance the activity
